In article PMC10989005, “Inter-phylum circulation of a beta-lactamase-encoding gene: a rare but observable event” (Antimicrobial Agents and Chemotherapy, 2024):

How the values were obtained:
Assay type in all cases: biochemical, Escherichia coli
MUN-1 beta-lactamase [1] = system: T1, MUN-1 beta-lactamase; experiment: hydrolysis kinetics, purified beta-lactamase; details: details in supplement; read-out: Kinetic measurement / Km
T1 construct: gene blaMUN-1; full gene cloned in pTOPO-kanR, expressed in E. coli TOP10, purified by ion exchange; no tag mentioned
Text: hydrolysis kinetics, purified beta-lactamase on MUN-1 beta-lactamase

MUN-1 beta-lactamase [2] = biological target: T1, MUN-1 beta-lactamase; experiment: kinetic measurement, purified beta-lactamase; details: details in supplement
Text: kinetic measurement, purified beta-lactamase on MUN-1 beta-lactamase

MUN-1 beta-lactamase [3] = biological target: T1, MUN-1 beta-lactamase; experiment: beta-lactamase inhibition; details: covalent (known mechanism); reporter substrate and buffer only in supplement
[4] = covalent (acylation without deacylation suggested)

CC1(C)S[C@@H]2[C@H](NC(=O)[C@H](N)c3ccccc3)C(=O)N2[C@H]1C(=O)O [Ampicillin]
Km (MUN-1 beta-lactamase [1]): 280 µM

C[C@H]1[C@H](NC(=O)/C(=N\OC(C)(C)C(=O)O)c2csc(N)n2)C(=O)N1S(=O)(=O)O [Aztreonam]
Km (MUN-1 beta-lactamase [1]): 45 µM

CC(C)(O/N=C(\C(=O)N[C@@H]1C(=O)N2C(C(=O)[O-])=C(C[n+]3ccccc3)CS[C@H]12)c1csc(N)n1)C(=O)O [Ceftazidime]
Ki (MUN-1 beta-lactamase [2]; [4]): 580 nM

CC(=O)OCC1=C(C(=O)O)N2C(=O)[C@@H](NC(=O)Cc3cccs3)[C@H]2SC1 [Cephalothin]
Km (MUN-1 beta-lactamase [1]): 15 µM

C[C@@H](O)[C@H]1C(=O)N2C(C(=O)O)=C(S[C@@H]3CN[C@H](C(=O)Nc4cccc(C(=O)O)c4)C3)[C@H](C)[C@H]12 [Ertapenem]
Ki (MUN-1 beta-lactamase [2]): 17 nM

C[C@@H](O)[C@H]1C(=O)N2C(C(=O)O)=C(SCCN=CN)C[C@H]12 [Imipenem]
Ki (MUN-1 beta-lactamase [2]): 1.3 nM

C[C@@H](O)[C@H]1C(=O)N2C(C(=O)O)=C(S[C@@H]3CN[C@H](C(=O)N(C)C)C3)[C@H](C)[C@H]12 [Meropenem]
Ki (MUN-1 beta-lactamase [2]): 19 nM

CC1(C)S[C@@H]2[C@H](NC(=O)Cc3ccccc3)C(=O)N2[C@H]1C(=O)O [Penicillin G]
Km (MUN-1 beta-lactamase [1]): 95 µM

CCN1CCN(C(=O)N[C@@H](C(=O)N[C@@H]2C(=O)N3[C@@H]2SC(C)(C)[C@@H]3C(=O)O)c2ccccc2)C(=O)C1=O [Piperacillin]
Ki (MUN-1 beta-lactamase [2]; [4]): 7.2 nM

CC1(C)S[C@@H]2[C@H](NC(=O)[C@H](C(=O)O)c3ccsc3)C(=O)N2[C@H]1C(=O)O [Ticarcillin]
Ki (MUN-1 beta-lactamase [2]): 3.6 nM

NC(=O)[C@@H]1CC[C@@H]2CN1C(=O)N2OS(=O)(=O)O [avibactam]
IC50 (MUN-1 beta-lactamase [3]): 3.8 nM

O=C(O)[C@H]1/C(=C/CO)O[C@@H]2CC(=O)N21 [clavulanic acid]
IC50 (MUN-1 beta-lactamase [3]): 0.32 nM

C[C@]1(Cn2ccnn2)[C@H](C(=O)O)N2C(=O)C[C@H]2S1(=O)=O [tazobactam]
IC50 (MUN-1 beta-lactamase [3]): 0.8 nM
